Results on 13 compounds are retold here after PubChem BioAssay (NCI).

Holding throughout (experiment): NCI-60 cell line screen, 48 h
Test [1] relates to A498 renal.
The test system of test [2] is CCRF-CEM leukemia.
Test [3] has as its system HL-60(TB) leukemia.
Test [4] has as its system MDA-MB-231 breast.
Test [5] relates to MDA-MB-435.
The test system of test [6] is OVCAR-3 ovarian.
Test [7] has as its system OVCAR-4 ovarian.
For test [8], the system named is OVCAR-8 ovarian.
In test [9] the test system is SNB-19 CNS.
For test [10], the system named is UACC-62 melanoma.

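Cells were grown in 96-well plates and exposed to each compound for 48 hours at five concentrations; endpoints were interpolated linearly between bracketing concentrations, or set to the highest concentration if not reached. GI50: concentration for 50% inhibition of growth. At the TGI there is no net growth.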 *1 amine or outer side, *2 acyl side, *3 side chain or, on linkers, in order; H or OH if unused. Where a SMILES comes first, the peptide text is derived from it. [ ]: non-standard residue; d: D form. The star is where a group is joined. X12 = NCCCCC(N[*:1])C(=O)CN1CCCC1C(=O)[*:2]; Pentadecanoyl = CCCCCCCCCCCCCCC(=O)*

With `CC(C)c1cc(C(C)C)c(B(c2ccccc2)c2ccccc2)c(C(C)C)c1Br`, the TGI in test [1], in test [2], in [3], in test [4], in test [5] and in [6] was > 100 µM throughout. Also, the TGI in [7], in [8], in test [9] and in [10] was > 100 µM in each case.

Consider `Cc1cc(=O)oc2c(CN(CCCl)CCCl)c(O)ccc12`, for which the TGI in test [1] is > 100 µM; in test [2] it was 31.7 µM; in test [3], 27.4 µM; in [4] it was > 100 µM; in test [5] it was > 100 µM; in test [6], > 100 µM. In addition, the TGI in test [7] was > 100 µM; in [8] it was > 100 µM; in test [9] it was > 100 µM; in test [10], 71.2 µM.

Take `O=C(OCC(OC(=O)c1ccccc1)C1CC(C(O)C2CCCCC2)C(=O)O1)c1ccccc1` (stereo not drawn): the TGI in [1] was > 100 µM; in test [2], 52.8 µM; in [3], 37 µM; in [4], > 100 µM; in [5] it was > 100 µM; in [6] it was > 100 µM. Besides, the TGI in test [7], in test [8], in test [9] and in test [10] was > 100 µM in each case.

In the case of `[O-][n+]1cc(SCc2ccccc2)ncc1SCc1ccccc1`, the TGI in test [1], in test [2], in test [3], in test [4], in test [5] and in [6] was > 10 µM in each case. Also, the TGI in test [7], in test [8] and in test [10] was > 10 µM in each case.

As to `COc1ccc(C2CCc3c(cnc4nc(N)nc(N)c34)C2)cc1` (stereo not drawn), the TGI in [1], in test [3], in [4], in test [5], in test [6] and in [7] was > 100 µM in each case. The TGI in test [8], in test [9] and in test [10] was > 100 µM in each case.

For `C=C1CC2C[C@H](OS(=O)(=O)c3ccc(C)cc3)C(C1)N2C` (stereo partly drawn), the TGI in test [2], in test [3], in test [4], in test [5], in [6] and in test [7] was > 100 µM throughout. In addition, the TGI in [8], in test [9] and in test [10] was > 100 µM in each case.

For `O=C(c1cccs1)N(C(=O)N1CCCCC1)c1ccccc1`, the TGI in test [1], in test [2], in test [3], in test [4], in [5] and in [6] was > 100 µM in each case. In addition, the TGI in test [8], in test [9] and in [10] was > 100 µM in each case.

On to `CCCCCCCCCCCCCCC(=O)NC(CCCCN)C(=O)CN1CCCC1C(=O)NCC(=O)NC(Cc1ccccc1)C(=O)N1CCCC1C(=O)NC(CO)C(=O)NC(Cc1ccc(O)cc1)C(=O)NC(CCCCN)C(=O)NC(CC(C)C)C(=O)NC(CCCN=C(N)N)C(=O)N1CCCC1C(=O)NCC(N)=O` (stereo not drawn) (Pentadecanoyl-[X12]GFPSYKLRPG-NH2; configuration not given here), for which the GI50 was 40.6 µM in test [1]; 16.8 µM in [2]; 27.3 µM in test [3]; 16.7 µM in [4]; 28.2 µM in [5]; 28 µM in test [6]. The values for the GI50 in [7], in test [8] and in test [9] were 34.8 µM, 27.8 µM and 24.4 µM, respectively. In addition, the TGI is > 100 µM in [1]; 32.2 µM in test [2]; 90.8 µM in test [3]; 32.5 µM in test [4]; 89.3 µM in [5]; 64.6 µM in test [6]. Moreover, the TGI in test [7] is 87.2 µM; in test [8] it was 64.4 µM; in test [9], 50.4 µM.

Regarding `c1ccc(C2C3=C(CCCC3)Nc3nnnn32)cc1` (stereo not drawn), the TGI in [1], in test [3], in test [4], in test [5], in test [6] and in test [8] was > 100 µM in each case. Besides, the TGI in test [9] and in test [10] was > 100 µM each time.

Take `N#Cc1nc(C(=O)c2ccccc2)oc1N`: the TGI in [1], in [2], in test [3], in test [4], in [5] and in test [7] was > 100 µM each time. For the same compound, the TGI in test [8], in test [9] and in [10] was > 100 µM throughout.

`Cn1c(-c2cccs2)cc(-c2ccsc2)c1-c1ccsc1`: the TGI in test [1], in test [2], in test [4], in test [5], in [6] and in test [7] was > 100 µM throughout. Further, the TGI in test [8], in test [9] and in test [10] was > 100 µM each time.

As to `COc1cc(C)c(S(=O)(=O)N(CCCN)OCCCN)c(C)c1C`, the TGI was > 100 µM in test [1]; > 100 µM in test [2]; 80.8 µM in [4]; > 100 µM in test [5]; > 100 µM in test [6]; > 100 µM in [7]. Further, the TGI in test [8], in [9] and in [10] was > 100 µM each time.

Regarding `CC(=O)c1nc(C#N)c(N)o1`, the TGI in [1], in test [2], in [4], in [5], in test [6] and in test [7] was > 100 µM each time. Moreover, the TGI in [8], in [9] and in [10] was > 100 µM each time.
